In patent US20240368214A1, “POSITIVE NMDA-MODULATING COMPOUNDS AND METHODS OF USE THEREOF” (SAGE THERAPEUTICS, INC., priority 2021, published 2024):
Read-outs that look alike come from different tables or passages of the source.

Molecular target: T1, recombinant human GluN1/GluN2A receptor (Homo sapiens, UniProt Q05586+Q12879)
T1 construct: expressed in transfected cells; host or cells: HEK293, tetracycline-inducible expression
Experiment: Whole-cell patch clamp of mammalian cells (Syncropatch 384i), NMDA modulation
Type: cell-based
Settings: HEK293 cells, human GluN1/GluN2A, glutamate 1 μM / glycine 100 μM, -80 mV, peak amplitude increase; for EC50: read-out: EC50
Outline: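 Modulation read as fold rise in peak current, (Icomp/Icontrol)−1, from 8 concentrations with ≥2 wells each, four-parameter fit. Compound pre-incubated 120 s then co-applied with 1 μM glutamate plus 100 μM glycine; tetracycline-inducible HEK293 GluN1/GluN2A cells clamped at −80 mV.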

T1 sequence (Q12879 23-1464, other chains not shown): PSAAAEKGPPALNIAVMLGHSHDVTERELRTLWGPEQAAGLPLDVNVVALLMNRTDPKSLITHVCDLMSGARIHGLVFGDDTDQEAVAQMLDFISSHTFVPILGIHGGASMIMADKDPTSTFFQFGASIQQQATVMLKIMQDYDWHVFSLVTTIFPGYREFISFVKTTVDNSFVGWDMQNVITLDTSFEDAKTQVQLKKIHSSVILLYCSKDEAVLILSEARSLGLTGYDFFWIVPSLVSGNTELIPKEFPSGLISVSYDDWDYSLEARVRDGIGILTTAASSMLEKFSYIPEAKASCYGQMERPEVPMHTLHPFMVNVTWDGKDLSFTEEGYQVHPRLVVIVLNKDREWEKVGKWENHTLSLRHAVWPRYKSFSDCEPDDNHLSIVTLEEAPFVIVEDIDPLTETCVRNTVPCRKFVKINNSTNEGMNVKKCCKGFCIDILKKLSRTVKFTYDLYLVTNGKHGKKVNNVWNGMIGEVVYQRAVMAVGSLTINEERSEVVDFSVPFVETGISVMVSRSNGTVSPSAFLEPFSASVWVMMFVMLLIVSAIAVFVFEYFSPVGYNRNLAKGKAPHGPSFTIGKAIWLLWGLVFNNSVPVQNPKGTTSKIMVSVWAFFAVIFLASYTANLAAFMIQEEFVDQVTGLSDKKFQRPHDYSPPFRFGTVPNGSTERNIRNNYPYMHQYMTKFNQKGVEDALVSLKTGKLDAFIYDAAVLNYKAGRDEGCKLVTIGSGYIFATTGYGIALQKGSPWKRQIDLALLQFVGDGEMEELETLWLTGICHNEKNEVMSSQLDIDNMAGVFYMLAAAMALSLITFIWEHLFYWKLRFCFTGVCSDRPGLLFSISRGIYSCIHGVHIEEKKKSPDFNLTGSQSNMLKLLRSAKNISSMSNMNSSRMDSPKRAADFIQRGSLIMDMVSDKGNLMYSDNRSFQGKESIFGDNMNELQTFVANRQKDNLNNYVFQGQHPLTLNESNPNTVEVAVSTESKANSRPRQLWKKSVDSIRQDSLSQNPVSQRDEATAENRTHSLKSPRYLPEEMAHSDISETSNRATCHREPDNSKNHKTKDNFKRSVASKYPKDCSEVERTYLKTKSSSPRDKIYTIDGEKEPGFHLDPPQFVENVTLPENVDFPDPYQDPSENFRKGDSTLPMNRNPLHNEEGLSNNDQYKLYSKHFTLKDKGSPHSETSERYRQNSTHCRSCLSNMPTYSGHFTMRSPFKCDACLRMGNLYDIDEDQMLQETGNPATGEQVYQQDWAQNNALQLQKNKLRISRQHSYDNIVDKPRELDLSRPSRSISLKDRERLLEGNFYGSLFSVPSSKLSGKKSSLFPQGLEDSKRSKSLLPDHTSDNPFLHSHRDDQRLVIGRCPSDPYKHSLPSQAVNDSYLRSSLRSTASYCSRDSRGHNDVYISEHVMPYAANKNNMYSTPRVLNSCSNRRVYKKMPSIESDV

C[C@H](CC[C@H](O)C(C)(C)C#N)[C@H]1CC[C@H]2[C@@H]3CC[C@H]4C[C@@](C)(O)CC[C@]4(C)C3=CC[C@]12C [Compound C-35, (3S,6R)-3-hydroxy-6-((3S,5S,8S,10S,13R,14S,17R)-3-hydroxy-3,10,13-trimethyl-2,3,4,5,6,7,8,10,12,13,14,15,16,17-tetradecahydro-1H-cyclopenta[a]phenanthren-17-yl)-2,2-dimethylheptanenitrile]
EC50 (Table C-2): 0.001 to 0.1 µM
EC50 (Table E-2): 0.001 to 0.1 µM

CC[C@]1(O)CC[C@@]2(CC)[C@@H](CC[C@H]3[C@@H]4CC[C@H]([C@H](C)CC[C@@](C)(O)C(F)(F)F)[C@@]4(C)CC[C@@H]32)C1 [Compound G-4, (3S,5S,8S,9S,10S,13R,14S,17R)-3,10-diethyl-13-methyl-17-((2R,5R)-6,6,6-trifluoro-5-hydroxy-5-methylhexan-2-yl)hexadecahydro-1H-cyclopenta[a]phenanthren-3-ol]
Emax (Table G-2): 100 to 200%
EC50 (Table G-2): 0.1 to 0.5 µM

CC[C@]1(O)CC[C@H]2[C@@H](CC[C@@H]3[C@@H]2CC[C@]2(C)[C@@H]([C@H](C)CC[C@@](C)(O)C(F)(F)F)CC[C@@H]32)C1 [Compound G-2, (3S,5S,8R,9R,10S,13R,14S,17R)-3-ethyl-13-methyl-17-((2R,5R)-6,6,6-trifluoro-5-hydroxy-5-methylhexan-2-yl)hexadecahydro-1H-cyclopenta[a]phenanthren-3-ol]
Emax (Table G-2): 100 to 200%
EC50 (Table G-2): 0.5 to 1 µM

CC[C@@H](CCCC(C)(C)O)[C@H]1CC[C@H]2[C@@H]3CC[C@H]4C[C@](O)(CC)CC[C@]4(C)[C@H]3CC[C@]12C [Compound A-20, (3S,5S,8R,9S,10S,13R,14S,17R)-3-ethyl-17-((S)-7-hydroxy-7-methyloctan-3-yl)-10,13-dimethylhexadecahydro-1H-cyclopenta[a]phenanthren-3-ol]
EC50 (Table A-2): > 1 µM

CC[C@]1(O)CC[C@@]2(C)[C@@H](CC[C@@H]3[C@@H]2CC[C@]2(C)[C@@H]([C@@H](CCCC(C)(C)O)OC)CC[C@@H]32)C1 [Compound A-10, (3S,5S,8R,9S,10S,13S,14S,17S)-3-ethyl-17-((R)-5-hydroxy-1-methoxy-5-methylhexyl)-10,13-dimethylhexadecahydro-1H-cyclopenta[a]phenanthren-3-ol]
Emax (Table A-2): 100 to 200%
EC50 (Table A-2): 0.1 to 0.5 µM

CC[C@]1(O)CC[C@]2(C)C3=CC[C@]4(C)[C@@H]([C@H](C)CCC5(O)CC5)CC[C@H]4[C@@H]3CC[C@H]2C1 [Compound E-7, (3S,5S,8S,10S,13R,14S,17R)-3-ethyl-17-((R)-4-(1-hydroxycyclopropyl)butan-2-yl)-10,13-dimethyl-2,3,4,5,6,7,8,10,12,13,14,15,16,17-tetradecahydro-1H-cyclopenta[a]phenanthren-3-ol]
Emax (Table E-2): > 200%
EC50 (Table E-2): 0.1 to 0.5 µM

CC[C@]1(O)CC[C@@]2(C)[C@@H](CC[C@@H]3[C@@H]2CC[C@]2(C)[C@@H](C(C#N)CCCC(C)(C)O)CC[C@@H]32)C1 (stereo partly drawn) [Compound A-8, 2-((3S,5S,8R,9S,10S,13S,14S,17R)-3-ethyl-3-hydroxy-10,13-dimethylhexadecahydro-1H-cyclopenta[a]phenanthren-17-yl)-6-hydroxy-6-methylheptanenitrile]
Emax (Table A-2): 100 to 200%
EC50 (Table A-2): 0.001 to 0.1 µM

CC[C@]1(O)CC[C@]2(C)C3=CC[C@]4(C)[C@@H]([C@H](C)CC[C@@]5(O)CCOC5)CC[C@H]4[C@@H]3CC[C@H]2C1 [Compound E-8, (R)-3-((R)-3-((3S,5S,8S,10S,13R,14S,17R)-3-ethyl-3-hydroxy-10,13-dimethyl-2,3,4,5,6,7,8,10,12,13,14,15,16,17-tetradecahydro-1H-cyclopenta[a]phenanthren-17-yl)butyl)tetrahydrofuran-3-ol]
Emax (Table E-2): > 200%
EC50 (Table E-2): 0.001 to 0.1 µM

CC[C@]1(O)CC[C@]2(C)C3=CC[C@]4(C)[C@@H]([C@H](C)CCC5(O)CCCC5)CC[C@H]4[C@@H]3CC[C@H]2C1 [Compound E-6, (3S,5S,8S,10S,13R,14S,17R)-3-ethyl-17-((R)-4-(1-hydroxycyclopentyl)butan-2-yl)-10,13-dimethyl-2,3,4,5,6,7,8,10,12,13,14,15,16,17-tetradecahydro-1H-cyclopenta[a]phenanthren-3-ol]
Emax (Table E-2): > 200%
EC50 (Table E-2): 0.001 to 0.1 µM

CC[C@]1(O)CC[C@@]2(C)[C@@H](CC[C@@H]3[C@@H]2CC[C@]2(C)[C@@H]([C@H](F)CC[C@@H](O)C(C)C)CC[C@@H]32)C1 [Compound A-5, (3S,5S,8R,9S,10S,13S,14S,17S)-3-ethyl-17-((1R,4R)-1-fluoro-4-hydroxy-5-methylhexyl)-10,13-dimethylhexadecahydro-1H-cyclopenta[a]phenanthren-3-ol]
Emax (Table A-2): > 200%
EC50 (Table A-2): 0.001 to 0.1 µM

CC[C@]1(O)CC[C@@]2(C)[C@@H](CC[C@H]3[C@@H]4[C@H]5C[C@H]5[C@H]([C@H](C)CCCC(C)(C)O)[C@@]4(C)CC[C@@H]32)C1 [Compound B-4, (2S,4aS,4bS,6aR,7S,7aR,8aS,8bS,8cR,10aS)-2-ethyl-7-((R)-6-hydroxy-6-methylheptan-2-yl)-4a,6a-dimethyloctadecahydrocyclopropa[4,5]cyclopenta[1,2-a]phenanthren-2-ol]
Emax (Table B-2): > 200%
EC50 (Table B-2): 0.001 to 0.1 µM

CC[C@H](C#N)[C@H](O)CC[C@@H](C)[C@H]1CC[C@H]2[C@@H]3CC[C@H]4C[C@](O)(CC)CC[C@]4(C)[C@H]3CC[C@]12C [Compound C-5, (2R,3R,6R)-2-ethyl-6-((3S,5S,8R,9S,10S,13R,14S,17R)-3-ethyl-3-hydroxy-10,13-dimethylhexadecahydro-1H-cyclopenta[a]phenanthren-17-yl)-3-hydroxyheptanenitrile]
Emax (Table C-2): > 200%
EC50 (Table C-2): 0.001 to 0.1 µM

CC[C@]1(O)CCC[C@@]2(C)C(=CC[C@H]3[C@@H]4CC[C@H]([C@H](C)CCC(C)(C)O)[C@@]4(C)CC[C@@H]32)C1 [Compound D-9, (1R,3aS,3bS,7S,10aR,10bS,12aR)-7-ethyl-1-((R)-5-hydroxy-5-methylhexan-2-yl)-10a,12a-dimethyl-1,2,3,3a,3b,4,6,7,8,9,10,10a,10b,11,12,12a-hexadecahydrocyclohepta[a]cyclopenta[f]naphthalen-7-ol]
Emax (Table D-2): 100 to 200%
EC50 (Table D-2): 0.1 to 0.5 µM

CC[C@H](CC[C@@](C)(O)C(F)(F)F)[C@H]1CC[C@H]2[C@@H]3CC[C@H]4C[C@](O)(CC)CC[C@]4(C)[C@H]3CC[C@]12C [Compound A-2, (3S,5S,8R,9S,10S,13R,14S,17R)-3-ethyl-10,13-dimethyl-17-((3R,6R)-7,7,7-trifluoro-6-hydroxy-6-methylheptan-3-yl)hexadecahydro-1H-cyclopenta[a]phenanthren-3-ol]
Emax (Table A-2): 100 to 200%
EC50 (Table A-2): 0.5 to 1 µM

CC[C@]1(O)CC[C@@]2(C)[C@@H](CC[C@@H]3[C@@H]2CC[C@]2(C)[C@@H]([C@H](CC[C@H](O)C(C)C)C(F)(F)F)CC[C@@H]32)C1 [Compound A-17, (3S,5S,8R,9S,10S,13S,14S,17R)-3-ethyl-10,13-dimethyl-17-((2S,5S)-1,1,1-trifluoro-5-hydroxy-6-methylheptan-2-yl)hexadecahydro-1H-cyclopenta[a]phenanthren-3-ol]
EC50 (Table A-2): > 1 µM

CC[C@]1(O)CC[C@@]2(C)[C@@H](CC[C@H]3[C@@H]4CC[C@H]([C@H](C)CC[C@H](O)C(C)C)[C@H]4CC[C@@H]32)C1 [Compound F-8, (3S,5S,8S,9S,10S,13R,14R,17R)-3-ethyl-17-((2R,5S)-5-hydroxy-6-methylheptan-2-yl)-10-methylhexadecahydro-1H-cyclopenta[a]phenanthren-3-ol]
EC50 (Table F-2): 0.1 to 0.5 µM

CC[C@@H](C#N)[C@@H](O)CC[C@@H](C)[C@H]1CC[C@H]2[C@@H]3CC[C@H]4C[C@](O)(CC)CC[C@]4(C)[C@H]3CC[C@]12C [Compound C-8, (25,3S,6R)-2-ethyl-6-((3S,5S,8R,9S,10S,13R,14S,17R)-3-ethyl-3-hydroxy-10,13-dimethylhexadecahydro-1H-cyclopenta[a]phenanthren-17-yl)-3-hydroxyheptanenitrile]
Emax (Table C-2): < 100%
EC50 (Table C-2): 0.001 to 0.1 µM
